From PubChem BioAssay (NCI)
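Assay format: 96-well plates, 48-hour exposure. Abbreviation: GI50, concentration required for 50% inhibition of growth. At the TGI there is no net growth.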

Columns and labels:
Assay in all cases: NCI tumour cell line growth inhibition, 48 h
[1] = tested on: NCI/ADR-RES ovarian
[2] = tested on: OVCAR-8 ovarian
[3] = tested on: IGROV1 ovarian
[4] = tested on: SF-268 CNS
[5] = tested on: SNB-19 CNS
[6] = tested on: A549 NSCLC
[7] = tested on: SK-MEL-5 melanoma
[8] = tested on: NCI-H23 lung
[9] = tested on: SK-MEL-2 melanoma
[10] = tested on: K-562 leukemia

SMILES	GI50 [1] [µM]	TGI [1] [µM]	GI50 [2] [µM]	TGI [2] [µM]	GI50 [3] [µM]	TGI [3] [µM]	GI50 [4] [µM]	TGI [4] [µM]	GI50 [5] [µM]	TGI [5] [µM]	GI50 [6] [µM]	TGI [6] [µM]	GI50 [7] [µM]	TGI [7] [µM]	GI50 [8] [µM]	TGI [8] [µM]	GI50 [9] [µM]	TGI [9] [µM]	GI50 [10] [µM]	TGI [10] [µM]
N/C(=N\c1nc2ccccc2s1)NC(=O)Nc1ccccc1Cl	0.0643	8.83	0.179	25.1	0.134	21.6	0.832	> 44.2	0.201	> 69.5	0.19	18.1	0.318	13.5	0.305	18.2	3.24	> 61.3	0.0366	> 43.5
CN(C)CCCN=c1cc2c(=O)n(CCCN(C)C)c(=O)c3c(NCCCN(C)C)cc4c(O)n(CCCN(C)C)c(=O)c1c4c3-2	12.3	> 100	1.03	11.4	2.34	8.29	0.964	9.33	1.51	19.7	0.525	2.63	3.03	11.2	5.39	25.5	1.37	5.08	2.13	> 100
COc1ccc(C(=O)C(Br)C(Br)C(=O)O)cc1 (stereo not drawn)	–	> 100	–	> 100	–	> 100	–	> 100	–	> 100	–	> 100	–	> 100	–	> 100	–	> 100	–	82.9
N#C/C(=C/C=C/c1ccccc1)S(=O)c1ccccc1 (stereo not drawn)	0.369	13.7	0.338	1.73	0.467	3	0.392	1.94	0.638	2.58	2.17	11.3	1.65	3.05	0.461	2.31	2.09	5.62	0.32	90.8
CN(C1=NS(=O)(=O)N=C(N(C)c2ccccc2)O1)c1ccccc1	–	70.8	–	33.3	–	75.7	–	57	–	43.4	–	54.4	–	25.5	–	28.3	–	38	–	50.4
N=C1C(c2nc3ccccc3s2)=C(O)CN1c1ccc(Cl)cc1Cl	13.5	37.4	18.2	47.1	19.4	46.9	89	> 100	26.3	80.9	11.6	35.6	19.2	> 100	2.59	6.6	27.6	96.6	10.7	64.5
O=C1C(Cl)=C(Nc2cccc(O)c2)C(=O)N1c1cccc(Cl)c1	64.1	> 100	27.2	> 100	18.3	51.4	28.8	> 100	71.5	> 100	81.1	> 100	50.4	> 100	37.7	> 100	34.7	> 100	29.8	79
O=C1/C(=C/c2ccccc2Br)COc2ccc(O)c(O)c21	1.88	11.6	1.31	12.2	0.742	4.29	1.6	4.23	1.69	3.92	2.17	10.2	1.63	3.01	1.83	4.17	1.97	4.82	0.339	> 100
CCC(c1ccc(OC)cc1)C(CC)c1ccc(O)c(CN2CCCC2)c1 (stereo not drawn)	5.92	22.3	3.08	10.7	8.63	23.6	5.6	21.5	4.39	17.2	3.73	13.8	1.74	3.22	3.66	15.6	1.95	4.03	1.61	5.59
CNC(=O)c1cncc(/C=C/c2c(C)cccc2C)c1	> 25	> 25	> 25	> 25	12.9	> 25	> 25	> 25	> 25	> 25	> 25	> 25	> 25	> 25	> 25	> 25	> 25	> 25	> 22.3	> 25
Cc1ccc2c(N/N=C\c3ccco3)cc(C)nc2n1	6.25	26.1	5.7	24	3.41	14.8	6.15	20.5	8.15	24	4.37	18.5	10.1	22.3	–	–	3.05	8.77	3.02	11.2
O=C1/C(=C/c2ccccc2)CN(CCC(=O)N2C/C(=C\c3ccccc3)C(=O)/C(=C/c3ccccc3)C2)C/C1=C\c1ccccc1	12.1	> 76	5.4	> 100	5.19	21.9	12.2	> 100	13.2	> 93.4	29.3	> 100	14.1	47.2	11.5	33.5	17.5	38.1	0.494	> 100
CCC1CCCCN1C(=S)N/N=C(\C)c1ccccn1 (stereo not drawn)	0.0472	6.26	< 0.0255	2.06	< 0.0304	2.44	0.0766	5.62	0.154	4.79	0.0346	2.94	0.194	1.59	0.0365	5.01	0.0733	1.65	0.0238	> 100
NC1=NC(c2ccccc2)CC(c2cc(Cl)cc(Br)c2O)=N1 (stereo not drawn)	–	29.9	–	38.5	–	30.8	–	26.9	–	33.3	–	34.6	–	25	–	26	–	18.6	–	17.4
COc1ccccc1N1CCN(C(=O)c2ccc(NS(=O)(=O)c3cccc4cccnc34)cc2)CC1	> 100	> 100	> 43.5	> 100	> 78.4	> 100	> 48.3	> 100	29.5	> 85.5	> 100	> 100	> 100	> 100	> 67.2	> 100	> 100	> 100	> 100	> 100
O=C1CC2C(=O)C1C(C(=O)O)C2C(=O)O (stereo not drawn)	–	> 100	–	> 100	–	> 100	–	> 100	–	> 100	–	> 100	–	> 100	–	> 100	–	> 100	–	> 100
CCCCNC(=O)Oc1ccc2c(=O)c3sc4c(=O)c5ccccc5c(=O)c4c3c(=O)c2c1	1.58	8.43	1.44	4.76	2.23	6.72	1.1	3.56	0.287	1.05	0.209	0.481	0.103	0.224	0.188	0.583	1.37	3.3	0.937	11.5
CC(=O)Nc1ccc2oc(=O)c3ccccc3c2c1	–	> 100	–	> 100	–	> 100	–	> 100	–	> 100	–	> 100	–	> 100	–	> 100	–	> 100	–	> 100
NC(=O)c1cc(Cl)ccc1NC(=O)c1ccccc1-c1ccccc1	0.459	26.4	2.81	> 100	1.55	> 100	5.38	> 100	0.709	> 100	1.16	> 100	0.425	15.9	2.01	> 100	0.288	0.799	0.416	> 100
CC1OC(O[C@H]2/C=C/C=C/C=C/C=C/C=C/C=C/C=C/[C@H](C)[C@@H](O)[C@@H](C)[C@H](C)OC(=O)C[C@H](O)C[C@H](O)CC[C@@H](O)[C@H](O)C[C@H](O)C[C@]3(O)C[C@H](O)[C@@H](C(=O)O)[C@H](C2)O3)C(O)C(N)C1O (stereo partly drawn)	24.9	56.5	33	57.6	–	20.7	25.6	60.7	37.8	50.2	9.72	34.9	25.8	59	14.3	34.5	–	59.3	–	> 100
COc1cc(C)[nH]c(=O)c1CN1CCc2c(Cl)cc([C@H](OC)C3COC3)c(Cl)c2C1=O	> 100	> 100	> 100	> 100	> 100	> 100	> 100	> 100	> 100	> 100	> 100	> 100	> 100	> 100	> 100	> 100	> 100	> 100	> 100	> 100
COc1cccc(-c2nc(-c3ccc(NC(=O)c4ccccc4)cc3)[nH]c2-c2ccnc(Br)c2)c1	3.55	> 100	4.02	> 100	6.96	> 100	6.13	> 100	3.87	> 100	4.07	> 100	1.79	3.34	2.82	> 100	2.93	> 100	1.67	> 100
O=C(Nc1ccc(Cl)cc1)c1cc2cc(F)ccc2cc1O	2.5	8.05	2.93	> 100	2.28	> 100	2.46	> 100	2.2	> 100	2.5	> 100	0.417	1.52	0.929	7.33	0.672	2.74	0.491	> 100
C=C1SC(=Nc2ccccc2Cl)N(C(=O)c2sc3ccccc3c2Cl)C1(C)C	3.71	> 53	5.08	> 100	6.2	> 100	12.9	> 100	3.64	> 100	4.5	> 100	6.65	25.2	4.41	> 100	8.83	31.9	4.51	> 37.4
N#Cc1nn(C2OC(COC(=O)c3ccccc3)C(OC(=O)c3ccccc3)C2OC(=O)c2ccccc2)c2nc[nH]c(=O)c12 (stereo not drawn)	–	> 100	–	> 100	–	> 100	–	> 100	–	> 100	–	> 100	–	65.6	–	> 100	–	> 100	–	> 100
C/C=C1\C(=O)O[C@@H]2C1C[C@@H]1O[C@H]2[C@H](C)CCC/C(C)=C/CC[C@@]1(C)O (stereo partly drawn)	3.89	13.4	2.52	6.76	1.29	3.32	8.45	23	19.4	40.6	10.6	22.5	3.03	9.4	–	–	3.66	13.2	9.72	> 100
